Patent publication US11931424B2, “Combination MCL-1 inhibitors with anti-body drug conjugates” (Gilead Sciences, Inc., priority 2021, dated 2024)

Test system: panel of breast cancer cell lines
Experiment: Compound A with targeted agents and chemotherapies, 72-hour in vitro proliferation assays
Format: cell-based
Settings: 72-hour proliferation
[1] = AU565 cell line, compound A × partner
[2] = BT-20 cell line, compound A × partner
[3] = BT-474 cell line, compound A × partner
[4] = BT-549 cell line, compound A × partner
[5] = CAL-51 cell line, compound A × partner
[6] = CAL-85-1 cell line, compound A × partner
[7] = CAL-120 cell line, compound A × partner
[8] = CAL-148 cell line, compound A × partner
[9] = CAMA-1 cell line, compound A × partner
[10] = DU-4475 cell line, compound A × partner
[11] = EVSA-T cell line, compound A × partner
[12] = HCC1143 cell line, compound A × partner
[13] = MCF7 cells, Compound A × partner agent
[14] = MDA-MB-175-VII cells, Compound A × partner agent
[15] = MDA-MB-231 cells, Compound A × partner agent
[16] = MDA-MB-361 cells, Compound A × partner agent
[17] = MDA-MB-436 cells, Compound A × partner agent
[18] = MDA-MB-453 cells, Compound A × partner agent
[19] = MDA-MB-468 cells, Compound A × partner agent
[20] = SK-BR-3 cells, Compound A × partner agent
[21] = SUM159PT cells, combination of compound A with the named agent
[22] = T47D cells, combination of compound A with the named agent
[23] = ZR-75-1 cells, combination of compound A with the named agent
[24] = ZR-75-30 cells, combination of compound A with the named agent

N.N.O=C([O-])C1(C(=O)[O-])CCC1.[Pt+2] [Carboplatin]
Best CI [1]: 1.10 | Bliss Volume [1]: 6.93 | HSA volume [1]: −0.68 | Loewe Volume [1]: −0.04 | Synergy Score [1]: 3.68 | Best CI [2]: 0.66 | Bliss Volume [2]: 7.81 | HSA volume [2]: 1.55 | Loewe Volume [2]: −0.31 | Synergy Score [2]: 5.46 | Best CI [3]: 1.30 | Bliss Volume [3]: −3.87 | HSA volume [3]: −5.02 | Loewe Volume [3]: −4.61 | Synergy Score [3]: 2.18 | Best CI [4]: 1.30 | Bliss Volume [4]: 6.55 | HSA volume [4]: 4.24 | Loewe Volume [4]: 4.88 | Synergy Score [4]: 5.26 | Best CI [5]: 0.89 | Bliss Volume [5]: 2.81 | HSA volume [5]: 2.17 | Loewe Volume [5]: 2.97 | Synergy Score [5]: 5.53 | Best CI [6]: 1.11 | Bliss Volume [6]: 4.84 | HSA volume [6]: 3.68 | Loewe Volume [6]: 3.42 | Synergy Score [6]: 4.18 | Best CI [7]: 0.58 | Bliss Volume [7]: −0.19 | HSA volume [7]: −1.52 | Loewe Volume [7]: −0.25 | Synergy Score [7]: 0.49 | Best CI [8]: 0.27 | Bliss Volume [8]: 11.40 | HSA volume [8]: 12.06 | Loewe Volume [8]: 11.89 | Synergy Score [8]: 24.09 | Best CI [9]: 0.46 | Bliss Volume [9]: 9.50 | HSA volume [9]: 6.02 | Loewe Volume [9]: 6.21 | Synergy Score [9]: 12.48 | Best CI [10]: 0.76 | Bliss Volume [10]: 10.04 | HSA volume [10]: 7.26 | Loewe Volume [10]: 6.59 | Synergy Score [10]: 8.88 | Best CI [11]: 0.84 | Bliss Volume [11]: 9.55 | HSA volume [11]: −0.13 | Loewe Volume [11]: −0.33 | Synergy Score [11]: 4.72 | Best CI (HCC38, compound A × partner): 0.63 | Best CI Level (HCC38, compound A × partner): 130 | Bliss Volume (HCC38, compound A × partner): 5.43 | HSA volume (HCC38, compound A × partner): 5.68 | Loewe Volume (HCC38, compound A × partner): 3.81 | Synergy Score (HCC38, compound A × partner): 9.07 | Best CI (HCC70, compound A × partner): 0.31 | Best CI Level (HCC70, compound A × partner): 60 | Bliss Volume (HCC70, compound A × partner): 12.67 | HSA volume (HCC70, compound A × partner): 3.84 | Loewe Volume (HCC70, compound A × partner): 3.02 | Synergy Score (HCC70, compound A × partner): 7.72 | Best CI [12]: 0.82 | Bliss Volume [12]: −4.47 | HSA volume [12]: −2.24 | Loewe Volume [12]: −2.60 | Synergy Score [12]: 3.59 | Best CI (HCC1569, compound A × partner): 0.43 | Best CI Level (HCC1569, compound A × partner): 30 | Bliss Volume (HCC1569, compound A × partner): 4.84 | HSA volume (HCC1569, compound A × partner): 2.05 | Loewe Volume (HCC1569, compound A × partner): 2.91 | Synergy Score (HCC1569, compound A × partner): 2.85 | Best CI (HCC1806, compound A × partner): 0.33 | Best CI Level (HCC1806, compound A × partner): 80 | Bliss Volume (HCC1806, compound A × partner): 11.43 | HSA volume (HCC1806, compound A × partner): 4.44 | Loewe Volume (HCC1806, compound A × partner): 9.76 | Synergy Score (HCC1806, compound A × partner): 9.06 | Best CI (HCC1937, compound A × partner): 0.44 | Best CI Level (HCC1937, compound A × partner): 25 | Bliss Volume (HCC1937, compound A × partner): 5.97 | HSA volume (HCC1937, compound A × partner): 3.52 | Loewe Volume (HCC1937, compound A × partner): 4.56 | Synergy Score (HCC1937, compound A × partner): 4.59 | Best CI (HCC1954, compound A × partner): 1.07 | Best CI Level (HCC1954, compound A × partner): 125 | Bliss Volume (HCC1954, compound A × partner): 2.26 | HSA volume (HCC1954, compound A × partner): 2.07 | Loewe Volume (HCC1954, compound A × partner): 0.71 | Synergy Score (HCC1954, compound A × partner): 5.12 | Best CI (HCC2218, compound A × partner): 0.70 | Best CI Level (HCC2218, compound A × partner): 45 | Bliss Volume (HCC2218, compound A × partner): 2.59 | HSA volume (HCC2218, compound A × partner): 0.49 | Loewe Volume (HCC2218, compound A × partner): −1.33 | Synergy Score (HCC2218, compound A × partner): 5.27 | Best CI (HDQ-P1, compound A × partner): 0.92 | Best CI Level (HDQ-P1, compound A × partner): 35 | Bliss Volume (HDQ-P1, compound A × partner): −3.17 | HSA volume (HDQ-P1, compound A × partner): −3.06 | Loewe Volume (HDQ-P1, compound A × partner): −3.13 | Synergy Score (HDQ-P1, compound A × partner): 0.54 | Best CI (HMC-1-8, compound A × partner): 0.72 | Best CI Level (HMC-1-8, compound A × partner): 155 | Bliss Volume (HMC-1-8, compound A × partner): 9.25 | HSA volume (HMC-1-8, compound A × partner): 4.09 | Loewe Volume (HMC-1-8, compound A × partner): 3.94 | Synergy Score (HMC-1-8, compound A × partner): 9.60 | Best CI (JIMT-1, compound A × partner): 0.96 | Best CI Level (JIMT-1, compound A × partner): 25 | Bliss Volume (JIMT-1, compound A × partner): 3.78 | HSA volume (JIMT-1, compound A × partner): −0.17 | Loewe Volume (JIMT-1, compound A × partner): 1.92 | Synergy Score (JIMT-1, compound A × partner): 0.69 | Best CI (KPL-1, compound A × partner): 0.89 | Best CI Level (KPL-1, compound A × partner): 105 | Bliss Volume (KPL-1, compound A × partner): 0.04 | HSA volume (KPL-1, compound A × partner): 1.33 | Loewe Volume (KPL-1, compound A × partner): 0.65 | Synergy Score (KPL-1, compound A × partner): 2.66 | Best CI [13]: 0.40 | Best CI Level [13]: 75 | Bliss Volume [13]: 8.40 | HSA volume [13]: 5.66 | Loewe Volume [13]: 4.40 | Synergy Score [13]: 6.10 | Best CI [14]: 0.60 | Best CI Level [14]: 80 | Bliss Volume [14]: 15.45 | HSA volume [14]: 7.97 | Loewe Volume [14]: 12.14 | Synergy Score [14]: 9.73 | Best CI [15]: 0.91 | Best CI Level [15]: 50 | Bliss Volume [15]: 3.11 | HSA volume [15]: 2.11 | Loewe Volume [15]: 3.30 | Synergy Score [15]: 1.89 | Best CI [16]: 0.82 | Best CI Level [16]: 135 | Bliss Volume [16]: 2.52 | HSA volume [16]: 1.01 | Loewe Volume [16]: 1.40 | Synergy Score [16]: 7.41 | Best CI [17]: 1.72 | Best CI Level [17]: 135 | Bliss Volume [17]: 1.31 | HSA volume [17]: 1.06 | Loewe Volume [17]: 1.16 | Synergy Score [17]: 2.53 | Best CI [18]: 1.12 | Best CI Level [18]: 150 | Bliss Volume [18]: 9.75 | HSA volume [18]: 5.44 | Loewe Volume [18]: 6.37 | Synergy Score [18]: 10.04 | Best CI [19]: 0.56 | Best CI Level [19]: 135 | Bliss Volume [19]: 19.05 | HSA volume [19]: 4.48 | Loewe Volume [19]: 3.36 | Synergy Score [19]: 7.68 | Best CI [20]: 0.35 | Best CI Level [20]: 160 | Bliss Volume [20]: 11.97 | HSA volume [20]: 1.74 | Loewe Volume [20]: 1.40 | Synergy Score [20]: 6.87 | Best CI [21]: 0.52 | Best CI Level [21]: 20 | Bliss Volume [21]: 1.33 | HSA volume [21]: −1.99 | Loewe Volume [21]: −0.01 | Synergy Score [21]: 0.81 | Best CI [22]: 1.01 | Best CI Level [22]: 30 | Bliss Volume [22]: 0.78 | HSA volume [22]: −1.67 | Loewe Volume [22]: 0.98 | Synergy Score [22]: 1.42 | Best CI [23]: 0.88 | Best CI Level [23]: 100 | Bliss Volume [23]: 4.99 | HSA volume [23]: 6.14 | Loewe Volume [23]: 6.57 | Synergy Score [23]: 7.91 | Best CI [24]: 0.30 | Best CI Level [24]: 100 | Bliss Volume [24]: 8.34 | HSA volume [24]: 6.81 | Loewe Volume [24]: 5.78 | Synergy Score [24]: 12.96
